A word on the melting point: it is the temperature, or range, at which the solid turns liquid. One may read the IC50 as the concentration that inhibits the measured activity by half.

The values that follow come from patent US8309721B2, “HSP90 inhibitory carbazole derivatives, compositions containing same and use thereof” (Sanofi, priority 2008, dated 2012).

Data set [1] has as its system Her2 receptor expression at the surface of SKBr3 cells. The experiment in a line: phenotypic SKBr3/HER2 cell test (Her2 surface expression by flow cytometry). In kind it is cell-based. The following applies: Homo sapiens, SK-BR-3, 24 h incubation, inhibition of Her2 expression. An outline of the steps:
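SKBr3 cells (Her2-overexpressing adenocarcinoma) treated 24 h with compound at varying concentrations, then stained with PE-anti-Her2 antibody 30 min at 4° C; surface Her2 measured by flow cytometry. IC50 from nonlinear fit of % inhibition of Her2 expression versus concentration.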
On the technique in general: Flow cytometry measures light scatter and fluorescence of single cells or particles in a stream.

Data set [2] deals with Hsp82 (Saccharomyces cerevisiae, UniProt P02829). The experiment in a line: Hsp82/ATPase test (malachite green or PK/LDH coupled method). In kind it is biochemical. The note with it: 1 μM Hsp82, 250 μM ATP, 37° C.; read-out: Hsp82 ATPase IC50. How it is done: The biochemical activity of the compounds can in particular be evaluated by means of the “Hsp82/ATPase” test described below: The inorganic phosphate released during the hydrolysis of ATP by the ATPase activity of Hsp82 is quantified by the malachite green method. In the presence of this reagent, formation of the inorganic phosphate-molybdate-malachite green complex, which absorbs at a wavelength of 620 nm, occurs. The products to be evaluated are incubated in a reaction volume of 30 μl, in the presence of 1 μM Hsp82 and of 250 μM of substrate (ATP) in a buffer composed of 50 mM Hepes-NaOH (pH 7.5), 1 mM DTT, 5 mM MgCl2 and 50 mM KCl at 37° C. for 60 min. In parallel, an inorganic phosphate range of between 1 and 40 μM is made up in the same buffer. […] After incubation at ambient temperature for 20 min, the absorbance of the various wells is measured using a microplate reader at 620 nm. The inorganic phosphate concentration of each sample is then calculated from the standard curve. The ATPase activity of Hsp82 is expressed as concentration of inorganic phosphate produced in 60 minutes. The effect of the various products tested is expressed as percentage inhibition of the ATPase activity. The formation of ADP due to the ATPase activity of Hsp82 was used to develop another method for evaluating the enzyme activity of this enzyme by application of an enzymatic coupling system involving pyruvate kinase (PK) and lactate dehydrogenase (LDH). In this kinetic-type spectrophotometric method, PK catalyses the formation of ATP and of pyruvate from phosphoenol pyruvate (PEP) and the ADP produced by Hsp82. The pyruvate formed, which is a substrate for LDH, is subsequently converted to lactate in the presence of NADH. In this case, the decrease in the NADH concentration, measured through the decrease in absorbance at the wavelength of 340 nm, is proportional to the concentration of ADP produced by Hsp82. The products tested are incubated in a reaction volume of 100 μl of buffer composed of 100 mM Hepes-NaOH (pH 7.5), 5 mM MgCl2, 1 mM DTT, 150 mM KCl, 0.3 mM NADH, 2.5 mM PEP and 250 μM ATP. This mixture is preincubated at 37° C. for 30 minutes before the addition of 3.77 units of LDH and 3.77 units of PK. The reaction is initiated by addition of the product to be evaluated, in varying concentrations, and of Hsp82, at the concentration of 1 μM. The enzymatic activity of Hsp82 is then measured continuously, in a microplate reader, at 37° C., at the wavelength of 340 nm. The initial rate of the reaction is obtained by measuring the slope of the tangent to the origin of the curve recorded. The enzymatic activity is expressed in μM of ADP formed per minute. The effect of the various products tested is expressed as percentage inhibition of the ATPase activity according to the codification below: […]
Chain of Hsp82 (P02829 whole entry): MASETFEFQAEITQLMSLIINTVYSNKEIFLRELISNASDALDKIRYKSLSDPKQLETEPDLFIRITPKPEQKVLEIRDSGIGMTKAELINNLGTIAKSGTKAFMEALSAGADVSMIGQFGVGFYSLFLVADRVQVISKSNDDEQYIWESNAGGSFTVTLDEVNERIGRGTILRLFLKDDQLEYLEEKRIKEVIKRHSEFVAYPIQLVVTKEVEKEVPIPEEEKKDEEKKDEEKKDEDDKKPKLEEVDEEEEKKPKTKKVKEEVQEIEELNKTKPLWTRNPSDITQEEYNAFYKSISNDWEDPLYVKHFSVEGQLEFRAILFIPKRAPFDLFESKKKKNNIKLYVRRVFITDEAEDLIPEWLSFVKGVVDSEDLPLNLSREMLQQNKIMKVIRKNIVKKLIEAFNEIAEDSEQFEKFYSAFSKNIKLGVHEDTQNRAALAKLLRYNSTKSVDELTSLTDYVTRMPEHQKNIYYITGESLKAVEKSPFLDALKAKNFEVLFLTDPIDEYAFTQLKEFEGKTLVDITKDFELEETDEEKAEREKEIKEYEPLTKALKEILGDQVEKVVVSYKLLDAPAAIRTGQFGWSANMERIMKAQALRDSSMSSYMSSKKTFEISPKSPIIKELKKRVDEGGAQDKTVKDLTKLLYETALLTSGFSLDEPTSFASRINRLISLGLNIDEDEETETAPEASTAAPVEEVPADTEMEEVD

Structures can show the parent of a compound that is named as a salt.

Compound `N#Cc1ccc(-c2cccc3c2c2ccccc2n3-c2ccc(C(N)=O)c(NCCCO)c2)cn1` [Example 112, 4-[4-(6-cyanopyridin-3-yl)-9H-carbazol-9-yl]-2-[(3-hydroxypropyl)amino]benzamide] displayed a melting point of 204 °C. In addition, the IC50 in data set [1] is under 1000 nM.
As for `NCCCC[C@@H](N)C(=O)O[C@H]1CC[C@H](Nc2cc(-n3c4ccccc4c4c(-c5nc6ccc(F)cc6[nH]5)cccc43)ccc2C(N)=O)CC1` (stereo in doubt) [Example 36, trifluoroacetate of the 4-trans-{2-carbamoyl-5-[4(6-fluoro-1H-benzimidazol-2-yl)-9H-carbazol-9-yl]phenylamino}cyclohexyl ester of (S)-2,6-diaminohexanoic acid], the IC50 in data set [2] and in data set [1] was under 1000 nM each time.
In the case of `NC(=O)c1ccc(-n2c3ccccc3c3c(-c4nc5ccc(F)cc5[nH]4)cccc32)cc1NC1CCOCC1` [Example 59, 4-[4-(6-fluoro-1H-benzimidazol-2-yl)-9H-carbazol-9-yl]-2-(tetrahydropyran-4-ylamino)benzamide], the IC50 in data set [2] and in data set [1] was under 1000 nM each time.
On to `CC(O)CCNc1cc(-n2c3ccccc3c3c(-c4nc5ccc(F)cc5[nH]4)cccc32)ccc1C(N)=O` (racemic) [Example 37, 4-[4-(6-fluoro-1H-benzimidazol-2-yl)-9H-carbazol-9-yl]-2-[3(R,S)hydroxybutylamino)benzamide], for which the IC50 in data set [2] and in data set [1] was under 1000 nM each time.
Regarding `NC(=O)c1ccc(-n2c3ccccc3c3c(-c4nc5ccncc5[nH]4)cccc32)cc1N[C@H]1CC[C@H](O)CC1` [Example 4, 2-(4-trans-hydroxycyclohexylamino)-4-[4-(3H-imidazo[4,5-c]pyridin-2-yl)-9H-carbazol-9-yl]benzamide], the IC50 in data set [2] and in data set [1] was under 1000 nM in each case.
Consider `CC(C)(C)OC(=O)NCCC(=O)O[C@H]1CC[C@H](Nc2cc(-n3c4ccccc4c4c(-c5nc6ccc(F)cc6[nH]5)cccc43)ccc2C(N)=O)CC1` [Example 23, 3-tert-butoxycarbonylaminopropionic acid 4-trans-{2-carbamoyl-5-[4-(6-fluoro-1H-benzimidazol-2-yl)-9H-carbazol-9-yl]phenylamino}cyclohexyl ester], for which the IC50 in data set [2] was 1000 to 10000 nM; in data set [1] it was under 1000 nM.
For `NCC(=O)O[C@H]1CC[C@H](Nc2cc(-n3c4ccccc4c4c(-c5nc6ccc(F)cc6[nH]5)cccc43)ccc2C(N)=O)CC1` [Example 25, trifluoroacetate of the 4-trans-{2-carbamoyl-5-[4-(6-fluoro-1H-benzimidazol-2-yl)-9H-carbazol-9-yl]phenylamino}cyclohexyl ester of aminoacetic acid], the IC50 is 1000 to 10000 nM in data set [2] and under 1000 nM in data set [1].
For `NC(=O)c1ccc(-n2c3ccccc3c3c(-c4nc5cc(F)ccc5[nH]4)cccc32)cc1N` [Example 10, 2-amino-4-[4-(6-fluoro-1H-benzimidazol-2-yl)-9H-carbazol-9-yl]benzamide], the IC50 was under 1000 nM in data set [2] and 1000 to 10000 nM in data set [1].
For `NCCNc1cc(-n2c3ccccc3c3c(-c4nc5ccc(F)cc5[nH]4)cccc32)ccc1C(N)=O` [Example 18, 2-(2-aminoethylamino)-4-[4-(6-fluoro-1H-benzimidazol-2-yl)-9H-carbazol-9-yl]benzamide], the IC50 in data set [2] is under 1000 nM; in data set [1], 1000 to 10000 nM.
The corresponding values for `NC(=O)c1ccc(-n2c3ccccc3c3c(-c4nc5ccc(F)cc5[nH]4)cccc32)cc1NC1CCCCC1` [Example 6, 2-cyclohexylamino-4-[4-(6-fluoro-1H-benzimidazol-2-yl)-9H-carbazol-9-yl]benzamide] are 1000 to 10000 nM and under 1000 nM.
For `CC(C)(C)OC(=O)CC(=O)O[C@H]1CC[C@H](Nc2cc(-n3c4ccccc4c4c(-c5nc6ccc(F)cc6[nH]5)cccc43)ccc2C(N)=O)CC1` [Example 15, tert-butyl and 4-{2-carbamoyl-5-[4-(6-fluoro-1H-benzimidazol-2-yl)-9H-carbazol-9-yl]phenylamino}cyclohexyl ester of malonic acid], the values for the IC50 in data set [2] and in data set [1] were 1000 to 10000 nM and under 1000 nM, respectively.
Regarding `C[C@H](NC(=O)OC(C)(C)C)C(=O)O[C@H]1CC[C@H](Nc2cc(-n3c4ccccc4c4c(-c5nc6ccc(F)cc6[nH]5)cccc43)ccc2C(N)=O)CC1` [Example 22, 2(S)-tert-butoxycarbonylaminopropionic acid 4-trans-{2-carbamoyl-5-[4-(6-fluoro-1H-benzimidazol-2-yl)-9H-carbazol-9-yl]phenylamino}cyclohexyl ester], the IC50 was 1000 to 10000 nM in data set [2] and under 1000 nM in data set [1].
As to `NC(=O)c1ccc(-n2c3ccccc3c3c(-c4nc5ccc(F)cc5[nH]4)cccc32)cc1NCCN1CCCC1` [Example 11, 4-[4-(6-fluoro-1H-benzimidazol-2-yl)-9H-carbazol-9-yl]-2-(2-pyrrolidin-1-ylethylamino)benzamide], the IC50 in data set [2] and in data set [1] was under 1000 nM each time.
As for `CC(CCO)Nc1cc(-n2c3ccccc3c3c(-c4cnc5ccccc5c4)cccc32)ccc1C(N)=O` (racemic) [Example 41, 2-[1-hydroxybutan-3(R,S)-ylamino]-4-[4-(quinolin-3-yl)-9H-carbazol-9-yl]benzamide], the IC50 in data set [2] and in data set [1] was under 1000 nM each time.
Consider `CC(C)(O)CCNc1cc(-n2c3ccccc3c3c(-c4nc5ccc(F)cc5[nH]4)cccc32)ccc1C(N)=O` [Example 61, 4-[4-(6-fluoro-1H-benzimidazol-2-yl)-9H-carbazol-9-yl]-2-(3-hydroxy-3-methylbutylamino)benzamide], for which the concentration for half-maximal inhibition (IC50) was 1000 to 10000 nM in data set [2] and under 1000 nM in data set [1].
With `Nc1n[nH]c2cc(-n3c4ccccc4c4c(-c5nc6ccc(F)cc6[nH]5)cccc43)ccc12` [Example 12, 6-[4-(6-fluoro-1H-benzimidazol-2-yl)-9H-carbazol-9-yl]-1H-indazol-3-ylamine], the IC50 in data set [2] and in data set [1] was 1000 to 10000 nM throughout.
As to `CN1CCC(O)(CCNc2cc(-n3c4ccccc4c4c(-c5cnc6ccccc6c5)cccc43)ccc2C(N)=O)CC1` [Example 65, 2-[2-(4-hydroxy-1-methylpiperidin-4-yl)ethylamino]-4-[4-(quinolin-3-yl)-9H-carbazol-9-yl]benzamide], the IC50 in data set [2] and in data set [1] was under 1000 nM in each case.
Take `Nc1noc2cc(-n3c4ccccc4c4c(-c5nc6ccc(F)cc6[nH]5)cccc43)ccc12` [Example 13, 6-[4-(6-fluoro-1H-benzimidazol-2-yl)-9H-carbazol-9-yl]-1,2-benzisoxazol-3-ylamine]: the IC50 in data set [2] and in data set [1] was 1000 to 10000 nM in each case.
For the compound `N#Cc1ccc(-c2cccc3c2c2ccccc2n3-c2ccc(C(N)=O)c(NC3CCOCC3)c2)cn1` [Example 126, 4-[4-(6-cyanopyridin-3-yl)-9H-carbazol-9-yl]-2-(tetrahydro-2H-pyran-4-ylamino)benzamide], the melting point came out at 256 °C. This compound also had an IC50 in data set [1] of under 1000 nM.
Regarding `NCCC(=O)O[C@H]1CC[C@H](Nc2cc(-n3c4ccccc4c4c(-c5nc6ccc(F)cc6[nH]5)cccc43)ccc2C(N)=O)CC1` [Example 24, trifluoroacetate of the 4-trans-{2-carbamoyl-5-[4-(6-fluoro-1H-benzimidazol-2-yl)-9H-carbazol-9-yl]phenylamino}cyclohexyl ester of 3-aminopropionic acid], the IC50 is 1000 to 10000 nM in data set [2] and under 1000 nM in data set [1].
`NC(=O)c1ccc(-n2c3ccccc3c3c(-c4cnc5ccccc5c4)cccc32)cc1` [Example 30, 4-[4-(quinolin-3-yl)-9H-carbazol-9-yl]benzamide]: the IC50 in data set [2] and in data set [1] was 1000 to 10000 nM throughout.
